# Patent US20240358727A1, “MICROSCALE THERMOPHORESIS TO EVALUATE CHANNEL LIPID INTERACTIONS AND METHODS OF TREATING NAV CHANNELS RELATED DISEASES” (Northeastern University, priority 2023, published 2024)
# Where “and” joins values, the source holds several entries; their conditions need not be identical. Equal entries are not always repeated.
# Legend:
# Nav1.5 WT = target: T1, Nav1.5 WT (Homo sapiens, UniProt Q14524); assay: Microscale thermophoresis (MST) binding of diC8-PIP2 to GFP-tagged wild type Nav1.5 in cell lysate
# T1 construct: expressed in transfected cells; host or cells: HEK293T cells, lysed; unpurified lysate supernatant used
# Method: (§1) The method utilizes cell lysates obtained from transfected/infected cells that are lysed and incubated with varying concentrations of a water-soluble analogue of PIP2 commercially available as diC8-PI(4,5)P2, in a 384 well plate. Other phosphoinositides such as diC8PI(4)P of diC8PI(5)P can also be utilized. After a brief incubation (10-30 mins) samples are loaded onto capillary chips purchased from the company Nanotemper. Samples are run on the Nanotemper Monolith instrument. This instrument is advertised to detect green fluorescent protein (GFP) tagged proteins, however we have also used TFP (teal FP) tagged proteins. The instrument provides a short infra-red laser pulse which produces a short thermal gradient. Protein that is interacting with the lipid migrates differently through this thermal gradient and its movement is evaluated by the fluorescence of the GFP/TFP tag on the protein. Based on the concentration of the dic8-phosphoinositide, this resolves into a sigmoidal relationship that delivers an apparent affinity (Kd) value. A test ligand can be added to this assay at a known concentration that is at or close to its Kd for the channel. A shift in the channel's affinity for PIP2 in this assay can help indicate whether this test compound is a good drug candidate for further biological experiments.
# (§2) Results. […]
# Nav1.5-R1644C = target: T2, Nav1.5-R1644C (Homo sapiens, UniProt Q14524, R1644C); assay: MST binding of diC8-PIP2 to GFP-Nav1.5-R1644C in cell lysate; settings: for affinity (Kd) of Nav1.5-R1644C relative to WT, fold lower: R1644C vs WT
# T2 construct: expressed in transfected cells; host or cells: HEK293T
# Method: as §1
# Results. Our studies were designed to evaluate PIP2-regulation for Nav1.5 channelopathies from multiple perspectives. Given that there is a lack of structural data to identify where, or how many PIP2 molecules bind to Nav1.5, we performed a docking simulation to identify putative PIP2 binding sites in the open, rat and human Nav1.5 cryoEM structures (PDB: 6UZ3 and 7DTC) (56-58). We observed four potential PIP2 binding sites at the boundary between the inner leaflet of the membrane and the cytoplasm with one at the interface between each voltage sensor and the channel body. In each case, we noted electrostatic and hydrogen bond interactions between the headgroup of PIP2 and multiple disease associated residues. […]
# [1] = target: T3, GFP-PHPLCδ (PIP2 biosensor) (Homo sapiens, UniProt P51178); assay: MST binding of diC8-PIP2 to GFP-tagged PHPLCδ1 (positive control)
# T3 construct: the pleckstrin homology domain of phospholipase C delta (GFP-PHPLCδ), a PIP2 biosensor; expressed in transfected cells; host or cells: cell lysate
# T3 sequence (P51178 21-130 limits assumed): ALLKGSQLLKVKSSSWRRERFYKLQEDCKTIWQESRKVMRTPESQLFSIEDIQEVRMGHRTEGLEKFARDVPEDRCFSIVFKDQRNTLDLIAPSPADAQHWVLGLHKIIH
# Method: as §1, §2
# T2 sequence (Q14524 whole entry R1644C): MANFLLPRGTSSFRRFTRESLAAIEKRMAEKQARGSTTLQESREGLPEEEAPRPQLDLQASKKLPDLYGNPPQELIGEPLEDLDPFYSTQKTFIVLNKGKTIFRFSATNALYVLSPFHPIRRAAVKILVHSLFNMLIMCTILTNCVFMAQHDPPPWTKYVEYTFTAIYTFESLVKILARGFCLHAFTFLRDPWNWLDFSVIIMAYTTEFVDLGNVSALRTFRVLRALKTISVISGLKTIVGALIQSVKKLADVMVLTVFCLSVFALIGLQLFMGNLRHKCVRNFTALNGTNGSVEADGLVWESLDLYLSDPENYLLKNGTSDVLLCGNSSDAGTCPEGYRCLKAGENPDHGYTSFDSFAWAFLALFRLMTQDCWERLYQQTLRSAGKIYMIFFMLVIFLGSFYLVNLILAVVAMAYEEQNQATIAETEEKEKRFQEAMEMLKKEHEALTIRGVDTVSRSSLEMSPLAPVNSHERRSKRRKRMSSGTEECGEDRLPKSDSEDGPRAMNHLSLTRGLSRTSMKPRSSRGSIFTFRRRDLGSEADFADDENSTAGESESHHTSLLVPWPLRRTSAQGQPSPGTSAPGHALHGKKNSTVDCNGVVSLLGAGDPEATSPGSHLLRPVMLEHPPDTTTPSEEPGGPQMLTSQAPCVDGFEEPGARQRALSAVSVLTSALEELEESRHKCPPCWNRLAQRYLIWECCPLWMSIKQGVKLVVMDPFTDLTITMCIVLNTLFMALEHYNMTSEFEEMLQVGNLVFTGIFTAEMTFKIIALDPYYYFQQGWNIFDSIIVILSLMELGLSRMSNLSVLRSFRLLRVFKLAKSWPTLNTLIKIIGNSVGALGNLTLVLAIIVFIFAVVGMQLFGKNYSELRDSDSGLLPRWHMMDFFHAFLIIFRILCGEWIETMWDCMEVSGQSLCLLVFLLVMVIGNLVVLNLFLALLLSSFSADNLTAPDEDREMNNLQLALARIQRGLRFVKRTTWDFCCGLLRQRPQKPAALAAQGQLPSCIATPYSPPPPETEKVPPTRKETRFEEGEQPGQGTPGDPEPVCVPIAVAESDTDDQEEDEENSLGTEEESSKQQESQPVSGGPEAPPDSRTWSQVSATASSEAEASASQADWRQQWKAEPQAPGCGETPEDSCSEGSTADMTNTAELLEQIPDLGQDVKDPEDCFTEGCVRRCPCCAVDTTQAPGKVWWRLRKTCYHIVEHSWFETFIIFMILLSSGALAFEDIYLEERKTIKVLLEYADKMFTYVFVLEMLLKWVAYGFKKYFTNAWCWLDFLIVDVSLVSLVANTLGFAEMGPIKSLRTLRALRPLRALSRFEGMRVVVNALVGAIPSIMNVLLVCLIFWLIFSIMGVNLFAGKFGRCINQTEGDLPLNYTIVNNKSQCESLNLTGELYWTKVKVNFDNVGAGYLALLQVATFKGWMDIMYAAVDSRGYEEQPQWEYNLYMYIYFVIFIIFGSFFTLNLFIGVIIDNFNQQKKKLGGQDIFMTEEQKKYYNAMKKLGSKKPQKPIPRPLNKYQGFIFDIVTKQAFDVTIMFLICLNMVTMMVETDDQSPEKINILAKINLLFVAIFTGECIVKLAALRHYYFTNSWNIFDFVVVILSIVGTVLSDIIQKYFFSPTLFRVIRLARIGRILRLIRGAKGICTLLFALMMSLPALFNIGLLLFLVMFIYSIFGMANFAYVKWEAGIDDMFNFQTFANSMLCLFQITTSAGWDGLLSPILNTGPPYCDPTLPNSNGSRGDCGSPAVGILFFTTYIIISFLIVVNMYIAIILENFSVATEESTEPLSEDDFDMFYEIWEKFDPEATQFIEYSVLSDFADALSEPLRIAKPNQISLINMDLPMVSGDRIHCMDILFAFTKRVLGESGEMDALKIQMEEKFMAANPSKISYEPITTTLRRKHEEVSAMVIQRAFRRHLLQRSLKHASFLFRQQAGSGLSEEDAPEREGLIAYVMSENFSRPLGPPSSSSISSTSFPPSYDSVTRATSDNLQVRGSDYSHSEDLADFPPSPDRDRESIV
# T1 sequence (Q14524 whole entry): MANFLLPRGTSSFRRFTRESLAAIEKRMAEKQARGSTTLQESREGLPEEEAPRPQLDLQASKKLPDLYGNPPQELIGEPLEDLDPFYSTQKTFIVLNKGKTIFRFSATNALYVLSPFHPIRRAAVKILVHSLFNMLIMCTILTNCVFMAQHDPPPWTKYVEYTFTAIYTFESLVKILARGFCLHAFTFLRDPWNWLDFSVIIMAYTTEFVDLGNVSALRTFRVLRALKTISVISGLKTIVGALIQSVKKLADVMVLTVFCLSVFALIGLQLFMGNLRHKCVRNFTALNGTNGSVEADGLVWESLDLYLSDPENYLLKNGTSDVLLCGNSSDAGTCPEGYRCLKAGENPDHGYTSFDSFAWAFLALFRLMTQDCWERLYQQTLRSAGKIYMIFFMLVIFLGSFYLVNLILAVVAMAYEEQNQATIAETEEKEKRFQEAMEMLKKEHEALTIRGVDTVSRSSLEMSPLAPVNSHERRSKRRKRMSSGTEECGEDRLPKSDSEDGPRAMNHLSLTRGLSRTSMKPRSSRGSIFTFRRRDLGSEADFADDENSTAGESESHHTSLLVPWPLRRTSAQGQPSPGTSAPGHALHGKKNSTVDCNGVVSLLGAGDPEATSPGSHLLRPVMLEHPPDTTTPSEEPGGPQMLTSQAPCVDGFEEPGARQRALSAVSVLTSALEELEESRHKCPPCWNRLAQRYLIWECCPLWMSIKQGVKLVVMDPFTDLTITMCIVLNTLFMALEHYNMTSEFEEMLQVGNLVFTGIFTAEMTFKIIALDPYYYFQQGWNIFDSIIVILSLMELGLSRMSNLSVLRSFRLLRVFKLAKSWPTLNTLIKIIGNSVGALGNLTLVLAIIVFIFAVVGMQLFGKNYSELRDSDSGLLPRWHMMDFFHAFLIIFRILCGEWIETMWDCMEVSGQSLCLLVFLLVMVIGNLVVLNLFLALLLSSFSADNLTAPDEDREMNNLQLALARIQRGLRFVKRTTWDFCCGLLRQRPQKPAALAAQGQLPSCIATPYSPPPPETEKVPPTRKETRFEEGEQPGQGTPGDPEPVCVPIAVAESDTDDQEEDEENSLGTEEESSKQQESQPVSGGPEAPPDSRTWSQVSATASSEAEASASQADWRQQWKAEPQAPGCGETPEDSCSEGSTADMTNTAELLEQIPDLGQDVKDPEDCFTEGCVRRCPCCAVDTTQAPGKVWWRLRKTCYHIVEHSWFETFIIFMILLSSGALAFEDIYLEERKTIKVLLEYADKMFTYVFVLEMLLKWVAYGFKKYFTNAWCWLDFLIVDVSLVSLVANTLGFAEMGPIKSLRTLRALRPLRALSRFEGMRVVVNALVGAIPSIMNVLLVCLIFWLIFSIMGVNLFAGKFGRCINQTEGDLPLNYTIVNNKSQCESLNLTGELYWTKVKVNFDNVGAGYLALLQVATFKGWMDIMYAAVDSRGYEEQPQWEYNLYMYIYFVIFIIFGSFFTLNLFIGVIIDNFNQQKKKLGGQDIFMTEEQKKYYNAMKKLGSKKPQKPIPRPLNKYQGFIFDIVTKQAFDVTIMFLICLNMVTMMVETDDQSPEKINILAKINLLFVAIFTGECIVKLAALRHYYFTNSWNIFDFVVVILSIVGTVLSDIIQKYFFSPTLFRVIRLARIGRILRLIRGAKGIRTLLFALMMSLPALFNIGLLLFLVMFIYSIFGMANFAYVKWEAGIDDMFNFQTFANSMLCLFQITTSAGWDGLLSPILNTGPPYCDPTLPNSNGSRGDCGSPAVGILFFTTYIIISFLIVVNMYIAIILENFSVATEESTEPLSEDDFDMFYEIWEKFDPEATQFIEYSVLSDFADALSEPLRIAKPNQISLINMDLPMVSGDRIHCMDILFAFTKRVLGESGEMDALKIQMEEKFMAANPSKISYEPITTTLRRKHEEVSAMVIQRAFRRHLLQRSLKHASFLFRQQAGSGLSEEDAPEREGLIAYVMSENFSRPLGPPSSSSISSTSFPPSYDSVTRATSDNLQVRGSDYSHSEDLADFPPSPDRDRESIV
smiles,measurement,setting,value
CCCCCCCC(=O)OC[C@H](COP(=O)(O)O[C@@H]1[C@H](O)[C@H](O)[C@@H](OP(=O)(O)O)[C@H](OP(=O)(O)O)[C@H]1O)OC(=O)CCCCCCC [diC8-PIP2],Kd,Nav1.5 WT,45 ± 10 nM
same,Kd,"Nav1.5-R1644C; Kd of diC8-PIP2 for Nav1.5-R1644C, GFP-Nav1.5-R1644C, HEK293T lysate",345 nM and 445 nM
same,"affinity (Kd) of Nav1.5-R1644C relative to WT, fold lower",Nav1.5-R1644C,~8 fold and ~10 fold
same,"affinity (Kd) of Nav1.5-R1644C relative to WT, fold lower","Nav1.5-R1644C; listed as diC8PI(4,5)P2",almost ten-fold lower
same,Kd,[1],130 nM
